{"source": "patent US9315544B2", "about": "“Method of treating eosinophilia by administering an immunomodulating peptide” (National Tsing Hua University, priority 2012, dated 2016)", "key": {"[1]": {"tested_on": "mite-induced airway inflammation", "test": "Lung histopathology (H&E), peri-bronchiolar and alveolar inflammation scores", "assay_type": "in vivo, BALB/c mouse", "description": "(§1) FIG. 4 illustrates experimental design. All groups except control group were immunized with mite crude extract allergen on days 1 and 8, then mite crude extract allergen intratracheally on day 15 in all mite treated group, BALB/c mouse were divided into six groups (1) control group (PBS), (2) mites delivered intratracheally (mIT, mite on day 15) alone, (3) CMP intranasal (eIN, CMP on days 1 to 22) alone, (4) preventive-treatment group (eIN+mIT, CMP on days 1 to 14, mite on day 15) (5) therapy-treatment group (mIT+eIN, mite on day 15, CMP on days 15 to 22), and (6) preventive- and therapeutic-treatment group (eIN+mIT+eIN, CMP on days 1 to 22, mite on day 15).\nFIG. 6A-6B illustrates inhibitory effect of CMP on influx of inflammatory cells. […] (A) Scores for peri-bronchiolar, alveolar inflammation and (B) PAS were determined based on the histological sections. Each result was expressed as the mean±S.D., n=4. ***, P<0.001. […]\nThe formalin-fixed lung sections stained with hematoxylin and eosin (H&E) were assigned a unit value for alveolar, peri-bronchiolar, and total inflammation by computing the means of three independent scores for three randomly selected fields. […] For evaluating the hyperplasia goblet cells, medium-sized airways were assessed in sections stained with periodic acid-Schiff (PAS) stain. Two reviewers independently and randomly scored 10 fields of each slide. […]"}, "[2]": {"tested_on": "mite-induced airway hyperresponsiveness", "test": "Mite-induced airway hyperresponsiveness, pause enhancement (Penh) by whole-body plethysmography", "assay_type": "in vivo, BALB/c mouse", "description": "as §1\nFIG. 5 illustrates inhibitory effect of CMP on mite-induced airway hyperresponsiveness. The effect of methacholine (MCh) on pause enhancement (Penh) in mouse exposed to CMP in the presence and absence of mite proteins. Penh was measured in all six treatment groups after stimulation with 6.25, 12.5, or 25 mg/ml MCh for 1 min. The values were presented as a ratio with respect to the baseline Penh (before MCh stimulation) for each group. Each result was expressed as the mean±S.D., n=4. **, P<0.01. ***, P<0.001. […]\nAirway responsiveness was measured in mouse on day 22 (i.e., 1 hour after the last challenge) in conscious, spontaneously breathing mouse using a whole-body plethysmography system (Buxco, Wilmington, N.C., USA) as described before (Maeda T, et al, Eur J Biochem 2002, 269, 307-316). […] The chamber-pressure-time wave was continuously measured via a transducer connected to a computer data acquisition system. After a baseline Penh reading for >3 min, mice were serially exposed to increasing concentrations of nebulized methacholine (MCh) (0, 6.25, 12.5, and 25 mg/ml; Sigma, St Louis, Mo., USA) in PBS for 1 min by inhalation. Penh values, which are measured as changes in enhanced pause, tidal volume, and breathing frequency (breaths/minute) for the first 3 min after the end of MCh nebulization, were averaged and used to compare responses among all six-treatment groups. […]"}}, "data": [{"sequence": "NYRWRCKNQN (CMP)", "values": [{"measurement": "effect on peribronchiolar, alveolar inflammation and goblet cells hyperplasia", "setting": "[1]; eIN+mIT+eIN compared with eIN+mIT and mIT+eIN group", "value": "more potently suppressive effect"}, {"measurement": "peri-bronchiolar and alveolar scores compared with mIT group", "setting": "[1]; eIN+mIT+eIN group (CMP days 1 to 22)", "value": "significantly lower"}, {"measurement": "AHR, response to increasing dose of inhaled methacholine", "setting": "[2]; CMP intranasal, eIN+mIT, mIT+eIN and eIN+mIT+eIN groups", "value": "significantly decrease"}, {"measurement": "Penh stimulation compared with mite group", "setting": "[2]; eIN+mIT and mIT+eIN groups, 25 mg/ml MCh", "value": "lower stimulation"}, {"measurement": "Penh/baseline ratio change of mIT group compared with CMP group", "setting": "[2]; mIT vs eIN+mIT+eIN group, 12.5 and 25 mg/ml MCh", "value": "much higher"}]}]}
